Reference: patent US20040063611A1, “Pharmaceutical preparation” (Merck Patent GmbH, priority 1998, published 2004)

What was measured:
[1] = non-micronized (customarily), cited from earlier work
[2] = In-vitro release Test 2 (water); format: physicochemical; details: micronized, particle size between 5 μm and 25 μm (to 95%)
Description: (§1) In the Federal Register Vol. 62, No. 15, Aug. 14, 1997; page 43535, the Department of Health and Human. Services, Food and Drug Administration, published the facts that the products available on the U.S. market which comprise levothyroxine sodium and are orally administered have stability problems and therefore must be present in an up to […] excess dose and that manufacturers must develop appropriate novel administration forms. The requirements on in-vitro release for levothyroxine Na tablets have furthermore been increased. The monograph draft version of the Pharmacopeial Forum (Pharm. Preview, 1995, 21, 1459-1461) proposes, in addition to the valid Test 1 (phosphate buffer pH 7.4, in 80 minutes >55%) to approve Test 2 (water in 45 minutes >70%).
(§2) With a particle size between 5 μm and 25 μm (to 95%) , however, a release of the active compound takes place in Test 1 to >90% (phosphate buffer) and in Test 2 to >80% (water).

[3] = In-vitro release Test 1 (phosphate buffer pH 7.4); format: physicochemical; details: micronized, particle size between 5 μm and 25 μm (to 95%)
Description: as §1, §2

With `N[C@@H](Cc1cc(I)c(Oc2cc(I)c(O)c(I)c2)c(I)c1)C(=O)O` [Levothyroxine sodium, levothyroxine sodium] as the molecule, how does the solubility in ethanol ([1]; ethanol) read?
The solubility in ethanol was “very sparingly soluble”.

What about the solubility in water ([1]; water) of the same molecule?
The solubility in water was “very sparingly soluble”.

What about the “release of the active compound in Test 2” value [2] of the same molecule?
Its value is > 80%.

And the “release of the active compound in Test 1” value [3]?
Its value is > 90%.
